Results as given in the supplement of paper PMC4862054.

What follows are compounds tested on CAL-120 (assay: normalised response (% of control), CellTiter-Glo; higher = more viable cells (100 = DMSO, 0 = benzethonium chloride kill control)). Conditions: incubation time: 72 h.
Procedure: (§1)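 DSRT, 72 h incubation, CellTox Green / CellTiter-Glo readout. Signal is normalised to DMSO and benzethonium chloride controls. Value is the normalised response at the highest dose.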

Q: How did the normalised response turn out when CCCCCCCCCCCCCCCCCCOP(=O)([O-])OC1CC[N+](C)(C)CC1 [Perifosine] (2500 nM) was run?
A: 104%

What follows are compounds tested on HCC1143 in the same assay as above. Conditions: incubation time: 72 h.
Procedure: as §1

Q: How did the normalised response turn out when O=C(CCCCCCC(=O)Nc1ccc([C@H]2O[C@@H](CSc3nc(-c4ccccc4)c(-c4ccccc4)o3)C[C@@H](c3ccc(CO)cc3)O2)cc1)NO [Tubacin] (10000 nM) was run?
A: 37.1%

Q: NC(=O)Nc1cc(-c2cccc(F)c2)sc1C(=O)N[C@H]1CCCNC1 [AZD7762] (1000 nM) was tested. Which normalised response did it give?
A: 23.7%

Q: How did the normalised response turn out when CCCCCCCCCCCCCCCCCCOP(=O)([O-])OC1CC[N+](C)(C)CC1 [Perifosine] (2500 nM) was run?
A: 99.1%

These compounds were tested on MCF-10A in the same assay as above. Conditions: incubation time: 72 h.
Procedure: as §1

Q: With O=C(CCCCCCC(=O)Nc1ccc([C@H]2O[C@@H](CSc3nc(-c4ccccc4)c(-c4ccccc4)o3)C[C@@H](c3ccc(CO)cc3)O2)cc1)NO [Tubacin] (10000 nM) as the compound, how does the normalised response read?
A: 52.4%

Q: Which normalised response does the source give for NC(=O)Nc1cc(-c2cccc(F)c2)sc1C(=O)N[C@H]1CCCNC1 [AZD7762] (1000 nM) here?
A: 31.1%

Q: For CCCCCCCCCCCCCCCCCCOP(=O)([O-])OC1CC[N+](C)(C)CC1 [Perifosine] (2500 nM), which normalised response is on record?
A: 63.7%

These compounds were tested on MDA-MB-436 in the same assay as above. Conditions: incubation time: 72 h.
Procedure: as §1

Q: For O=C(CCCCCCC(=O)Nc1ccc([C@H]2O[C@@H](CSc3nc(-c4ccccc4)c(-c4ccccc4)o3)C[C@@H](c3ccc(CO)cc3)O2)cc1)NO [Tubacin] (10000 nM), which normalised response is on record?
A: 57.5%

Q: NC(=O)Nc1cc(-c2cccc(F)c2)sc1C(=O)N[C@H]1CCCNC1 [AZD7762] (1000 nM) was tested. Which normalised response did it give?
A: 28.8%

Q: For CCCCCCCCCCCCCCCCCCOP(=O)([O-])OC1CC[N+](C)(C)CC1 [Perifosine] (2500 nM), which normalised response is on record?
A: 87.9%

These compounds were tested on MFM-223 in the same assay as above. Conditions: incubation time: 72 h.
Procedure: as §1

Q: O=C(CCCCCCC(=O)Nc1ccc([C@H]2O[C@@H](CSc3nc(-c4ccccc4)c(-c4ccccc4)o3)C[C@@H](c3ccc(CO)cc3)O2)cc1)NO [Tubacin] (10000 nM) was tested. Which normalised response did it give?
A: 38.2%

Q: NC(=O)Nc1cc(-c2cccc(F)c2)sc1C(=O)N[C@H]1CCCNC1 [AZD7762] (1000 nM) was tested. Which normalised response did it give?
A: 64.2%

Q: How did the normalised response turn out when CCCCCCCCCCCCCCCCCCOP(=O)([O-])OC1CC[N+](C)(C)CC1 [Perifosine] (2500 nM) was run?
A: 92.6%

Each compound was assayed on HCC1937 in the same assay as above. Conditions: incubation time: 72 h.
Procedure: as §1

Q: How did the normalised response turn out when O=C(CCCCCCC(=O)Nc1ccc([C@H]2O[C@@H](CSc3nc(-c4ccccc4)c(-c4ccccc4)o3)C[C@@H](c3ccc(CO)cc3)O2)cc1)NO [Tubacin] (10000 nM) was run?
A: 32.3%

Q: For NC(=O)Nc1cc(-c2cccc(F)c2)sc1C(=O)N[C@H]1CCCNC1 [AZD7762] (1000 nM), which normalised response is on record?
A: 26.4%

Q: For CCCCCCCCCCCCCCCCCCOP(=O)([O-])OC1CC[N+](C)(C)CC1 [Perifosine] (2500 nM), which normalised response is on record?
A: 52.7%

What follows are compounds tested on CAL-51 in the same assay as above. Conditions: incubation time: 72 h.
Procedure: as §1

Q: Which normalised response does the source give for O=C(CCCCCCC(=O)Nc1ccc([C@H]2O[C@@H](CSc3nc(-c4ccccc4)c(-c4ccccc4)o3)C[C@@H](c3ccc(CO)cc3)O2)cc1)NO [Tubacin] (10000 nM) here?
A: 35.4%

Q: For NC(=O)Nc1cc(-c2cccc(F)c2)sc1C(=O)N[C@H]1CCCNC1 [AZD7762] (1000 nM), which normalised response is on record?
A: 45.3%

Q: How did the normalised response turn out when CCCCCCCCCCCCCCCCCCOP(=O)([O-])OC1CC[N+](C)(C)CC1 [Perifosine] (2500 nM) was run?
A: 80.7%

These compounds were tested on SK-BR-3 in the same assay as above. Conditions: incubation time: 72 h.
Procedure: as §1

Q: For O=C(CCCCCCC(=O)Nc1ccc([C@H]2O[C@@H](CSc3nc(-c4ccccc4)c(-c4ccccc4)o3)C[C@@H](c3ccc(CO)cc3)O2)cc1)NO [Tubacin] (10000 nM), which normalised response is on record?
A: 45.4%

Q: For NC(=O)Nc1cc(-c2cccc(F)c2)sc1C(=O)N[C@H]1CCCNC1 [AZD7762] (1000 nM), which normalised response is on record?
A: 12%

Q: How did the normalised response turn out when CCCCCCCCCCCCCCCCCCOP(=O)([O-])OC1CC[N+](C)(C)CC1 [Perifosine] (2500 nM) was run?
A: 60.4%

These compounds were tested on HCC1599 in the same assay as above. Conditions: incubation time: 72 h.
Procedure: as §1

Q: Which normalised response does the source give for O=C(CCCCCCC(=O)Nc1ccc([C@H]2O[C@@H](CSc3nc(-c4ccccc4)c(-c4ccccc4)o3)C[C@@H](c3ccc(CO)cc3)O2)cc1)NO [Tubacin] (10000 nM) here?
A: 13.7%

Q: How did the normalised response turn out when NC(=O)Nc1cc(-c2cccc(F)c2)sc1C(=O)N[C@H]1CCCNC1 [AZD7762] (1000 nM) was run?
A: 10.2%

Q: Which normalised response does the source give for CCCCCCCCCCCCCCCCCCOP(=O)([O-])OC1CC[N+](C)(C)CC1 [Perifosine] (2500 nM) here?
A: 86.3%

What follows are compounds tested on CAL-85-1 in the same assay as above. Conditions: incubation time: 72 h.
Procedure: as §1

Q: O=C(CCCCCCC(=O)Nc1ccc([C@H]2O[C@@H](CSc3nc(-c4ccccc4)c(-c4ccccc4)o3)C[C@@H](c3ccc(CO)cc3)O2)cc1)NO [Tubacin] (10000 nM) was tested. Which normalised response did it give?
A: 18.4%

Q: How did the normalised response turn out when NC(=O)Nc1cc(-c2cccc(F)c2)sc1C(=O)N[C@H]1CCCNC1 [AZD7762] (1000 nM) was run?
A: 15.2%

Q: Which normalised response does the source give for CCCCCCCCCCCCCCCCCCOP(=O)([O-])OC1CC[N+](C)(C)CC1 [Perifosine] (2500 nM) here?
A: 102%

The compounds below were run on MDA-MB-231 in the same assay as above. Conditions: incubation time: 72 h.
Procedure: as §1

Q: How did the normalised response turn out when O=C(CCCCCCC(=O)Nc1ccc([C@H]2O[C@@H](CSc3nc(-c4ccccc4)c(-c4ccccc4)o3)C[C@@H](c3ccc(CO)cc3)O2)cc1)NO [Tubacin] (10000 nM) was run?
A: 8.62%

Q: NC(=O)Nc1cc(-c2cccc(F)c2)sc1C(=O)N[C@H]1CCCNC1 [AZD7762] (1000 nM) was tested. Which normalised response did it give?
A: 32%

Q: For CCCCCCCCCCCCCCCCCCOP(=O)([O-])OC1CC[N+](C)(C)CC1 [Perifosine] (2500 nM), which normalised response is on record?
A: 104%

What follows are compounds tested on BT-474 in the same assay as above. Conditions: incubation time: 72 h.
Procedure: as §1

Q: With O=C(CCCCCCC(=O)Nc1ccc([C@H]2O[C@@H](CSc3nc(-c4ccccc4)c(-c4ccccc4)o3)C[C@@H](c3ccc(CO)cc3)O2)cc1)NO [Tubacin] (10000 nM) as the compound, how does the normalised response read?
A: 13.9%

Q: For NC(=O)Nc1cc(-c2cccc(F)c2)sc1C(=O)N[C@H]1CCCNC1 [AZD7762] (1000 nM), which normalised response is on record?
A: 43%

Q: With CCCCCCCCCCCCCCCCCCOP(=O)([O-])OC1CC[N+](C)(C)CC1 [Perifosine] (2500 nM) as the compound, how does the normalised response read?
A: 104%

What follows are compounds tested on Hs578T in the same assay as above. Conditions: incubation time: 72 h.
Procedure: as §1

Q: With O=C(CCCCCCC(=O)Nc1ccc([C@H]2O[C@@H](CSc3nc(-c4ccccc4)c(-c4ccccc4)o3)C[C@@H](c3ccc(CO)cc3)O2)cc1)NO [Tubacin] (10000 nM) as the compound, how does the normalised response read?
A: 51.4%

Q: For NC(=O)Nc1cc(-c2cccc(F)c2)sc1C(=O)N[C@H]1CCCNC1 [AZD7762] (1000 nM), which normalised response is on record?
A: 22.1%

Q: How did the normalised response turn out when CCCCCCCCCCCCCCCCCCOP(=O)([O-])OC1CC[N+](C)(C)CC1 [Perifosine] (2500 nM) was run?
A: 96.9%

What follows are compounds tested on MDA-MB-453 in the same assay as above. Conditions: incubation time: 72 h.
Procedure: as §1

Q: Which normalised response does the source give for O=C(CCCCCCC(=O)Nc1ccc([C@H]2O[C@@H](CSc3nc(-c4ccccc4)c(-c4ccccc4)o3)C[C@@H](c3ccc(CO)cc3)O2)cc1)NO [Tubacin] (10000 nM) here?
A: 6.07%

Q: Which normalised response does the source give for NC(=O)Nc1cc(-c2cccc(F)c2)sc1C(=O)N[C@H]1CCCNC1 [AZD7762] (1000 nM) here?
A: 40.8%

Q: With CCCCCCCCCCCCCCCCCCOP(=O)([O-])OC1CC[N+](C)(C)CC1 [Perifosine] (2500 nM) as the compound, how does the normalised response read?
A: 98.6%

Each compound was assayed on CAL-148 in the same assay as above. Conditions: incubation time: 72 h.
Procedure: as §1

Q: Which normalised response does the source give for O=C(CCCCCCC(=O)Nc1ccc([C@H]2O[C@@H](CSc3nc(-c4ccccc4)c(-c4ccccc4)o3)C[C@@H](c3ccc(CO)cc3)O2)cc1)NO [Tubacin] (10000 nM) here?
A: 73.5%

Q: For NC(=O)Nc1cc(-c2cccc(F)c2)sc1C(=O)N[C@H]1CCCNC1 [AZD7762] (1000 nM), which normalised response is on record?
A: 106%

Q: With CCCCCCCCCCCCCCCCCCOP(=O)([O-])OC1CC[N+](C)(C)CC1 [Perifosine] (2500 nM) as the compound, how does the normalised response read?
A: 79.9%

The compounds below were run on HDQ-P1 in the same assay as above. Conditions: incubation time: 72 h.
Procedure: as §1

Q: With O=C(CCCCCCC(=O)Nc1ccc([C@H]2O[C@@H](CSc3nc(-c4ccccc4)c(-c4ccccc4)o3)C[C@@H](c3ccc(CO)cc3)O2)cc1)NO [Tubacin] (10000 nM) as the compound, how does the normalised response read?
A: 68.6%

Q: Which normalised response does the source give for NC(=O)Nc1cc(-c2cccc(F)c2)sc1C(=O)N[C@H]1CCCNC1 [AZD7762] (1000 nM) here?
A: 28%

Q: Which normalised response does the source give for CCCCCCCCCCCCCCCCCCOP(=O)([O-])OC1CC[N+](C)(C)CC1 [Perifosine] (2500 nM) here?
A: 84.7%

Each compound was assayed on BT-549 in the same assay as above. Conditions: incubation time: 72 h.
Procedure: as §1

Q: For O=C(CCCCCCC(=O)Nc1ccc([C@H]2O[C@@H](CSc3nc(-c4ccccc4)c(-c4ccccc4)o3)C[C@@H](c3ccc(CO)cc3)O2)cc1)NO [Tubacin] (10000 nM), which normalised response is on record?
A: 42%

Q: For NC(=O)Nc1cc(-c2cccc(F)c2)sc1C(=O)N[C@H]1CCCNC1 [AZD7762] (1000 nM), which normalised response is on record?
A: 21.2%

Q: For CCCCCCCCCCCCCCCCCCOP(=O)([O-])OC1CC[N+](C)(C)CC1 [Perifosine] (2500 nM), which normalised response is on record?
A: 111%
